According to article PMC5562305, “Impact of novel palmitoylated prolactin-releasing peptide analogs on metabolic changes in mice with diet-induced obesity” (PLoS ONE, 2017):
Starred links: 1 amine or outer side, 2 acyl side, 3 side chain; linkers in the order of their positions; H or OH if unused. Residues, ends and D or L forms follow the SMILES beside them. Groups on a side chain read outwards from the residue. *: point of attachment. TTDA(Palmitoyl) = CCCCCCCCCCCCCCCC(=O)NCCCOCCOCCOCCCN*; Suc = O=C(CCC(=O)[*:2])[*:1]

System: urinary metabolites
Assay: NMR-based metabolomics of urine of DIO mice
Format: in vivo, C57BL/6 mice
Set-up: key to DMA, Mean / DMG, Mean / MA, Mean / TMA, Mean / acetate, Mean / allantoin, Mean / carnitine, Mean / choline, Mean / cis-aconitate, Mean / creatine+creatinine, Mean / creatine, Mean / creatinine, Mean / ethanolamine, Mean / formate, Mean / galactose, Mean / glucose, Mean / glycine, Mean / lactate, Mean / succinate, Mean / vinylacetylglycine, Mean: TSA-normalized intensity of the metabolite's representative NMR signal
Method: Urine samples for NMR-based metabolomics were collected prior to the start of the interventions and at the end of the experiment. For overnight urine collection (from 5 pm to 8 am), the mice were housed in individual metabolic cages (Tecniplast, Buguggiate, Italy) without access to food. Samples were collected with the addition of NaN3 and stored at -80°C until NMR analysis.
The urine samples were thawed at room temperature and centrifuged at 13 684 x g for 5 min prior to the NMR experiments. A 200-μl aliquot of supernatant was diluted with 340 μl of H2O mixed with 60 μl of phosphate buffer (1.5 M KH2PO4 in D2O containing 2 mM NaN3 and 0.1% trimethylsilyl propionic acid (TSP), pH 7.4) and transferred to a 5-mm NMR tube. The NMR data were acquired with a 600 MHz Bruker Avance III spectrometer (Bruker BioSpin, Rheinstetten, Germany) equipped with a 5-mm TCI cryogenic probe head. All of the experiments were performed at 300 K. Automatic tuning, matching, shimming and adjusting of the 90° pulse length were performed for each sample.
As mouse urine naturally contains urinary proteins, the NMR spectra were acquired using a Carr-Purcell-Meiboom-Gill (CPMG) pulse sequence with water presaturation (Bruker pulse sequence cpmgpr1d) to eliminate the strong protein background. […] For better metabolite identification, a short J-resolved experiment with presaturation (NS = 2, SW = 16 ppm, TD = 8k, number of increments = 40, SW = 78.125 Hz in the indirect dimension, and relaxation delay = 2 s) was executed for all samples. Additional two-dimensional ^1H-^1H correlation spectroscopy (COSY) and ^1H-^13C heteronuclear multiple-quantum correlation (HMQC) experiments (Bruker pulse sequences cosygpprqf and hmqcphpr) were performed for selected samples.
The acquired data were processed using Topspin 3.2 software (Bruker BioSpin, Rheinstetten, Germany). Line broadening of 0.3 Hz was applied on free induction decays (FIDs) prior to Fourier transformation. The spectra were automatically phased, baseline corrected and referenced to the signal of TSP (0.00 ppm).
The assignment of individual metabolites was achieved by comparing the proton spectra with the spectra of pure metabolites using Chenomx NMR Suite 7.6 (Chenomx Inc., Edmonton, AB, Canada), the HMDB database and previously published metabolomic data. The identification of metabolites was supported through J-resolved and COSY experiments and, if possible, confirmed using carbon chemical shifts extracted from the HMQC spectra.
For quantitation of individual metabolites, the CPMG spectra were uniformly binned in the range of 0.10–10.00 ppm to 0.01-ppm intervals using AMIX software (Bruker BioSpin, Rheinstetten, Germany). This procedure reduced the dimensionality of the data, eliminated chemical shift variations and thus simplified the reproducible automatic quantification. Regions corresponding to water (4.60–4.90 ppm) and urea (5.60–6.00 ppm) were removed prior to analysis. As the dilutions of the original urine samples differed (due to the differences in water intake during urine collection), all of the spectra were normalized to the total spectral area (TSA). For each identified metabolite, one representative signal was chosen and then quantified as the sum of appropriate adjacent 0.01-ppm bins to cover the whole signal width. The metabolite concentration was expressed as the TSA-normalized intensity of the respective signal. For selection of an appropriate statistical method (parametric or non-parametric) the Lilliefors test of normality was performed. […] Metabolite alterations with a P < 0.05 were considered statistically significant. Statistical analysis was performed using Matlab software (“MATLAB version 8.6 (R2015b). Natick, Massachusetts: The MathWorks Inc., 2015.,” n.d.). […]

[1] = urine NMR signal, DIO mice, group mean
[2] = urine of DIO mice, NMR metabolomics, difference of analog mean vs saline mean

CCCCCCCCCCCCCCCC(=O)NCCCOCCOCCOCCCNC(=O)CCC(=O)NCCCC[C@H](NC(=O)[C@@H](NC(=O)[C@H](CCC(=O)O)NC(=O)[C@H](CCSC)NC(=O)[C@H](CO)NC(=O)[C@H](Cc1c[nH]cn1)NC(=O)[C@H](CCCNC(=N)N)NC(=O)[C@H](Cc1c[nH]cn1)NC(=O)[C@@H](NC(=O)[C@H](CCCNC(=N)N)NC(=O)[C@@H](N)CO)[C@@H](C)O)[C@@H](C)CC)C(=O)N[C@H](C(=O)N1CCC[C@H]1C(=O)N[C@@H](CC(=O)O)C(=O)N[C@H](C(=O)N[C@@H](CC(N)=O)C(=O)N1CCC[C@H]1C(=O)N[C@@H](C)C(=O)N[C@@H](Cc1c[nH]c2ccccc12)C(=O)N[C@@H](Cc1ccc(O)cc1)C(=O)N[C@@H](C)C(=O)N[C@@H](CO)C(=O)N[C@@H](CCCNC(=N)N)C(=O)NCC(=O)N[C@H](C(=O)N[C@@H](CCCNC(=N)N)C(=O)N1CCC[C@H]1C(=O)N[C@H](C(=O)NCC(=O)N[C@@H](CCCNC(=N)N)C(=O)N[C@@H](Cc1ccccc1)C(N)=O)C(C)C)[C@@H](C)CC)[C@@H](C)CC)[C@@H](C)O [analog 2] (H-SRTHRHSMEIK([Suc-TTDA(Palmitoyl)])TPDINPAWYASRGIRPVGRF-NH2; N-terminus assumed)
2-OG (2.45 ppm), Mean [1]: 11.956
2-OG (3.01 ppm), Mean [1]: 10.103
2-PY (8.33 ppm), Mean [1]: 0.992
3-indoxylsulfate (7.51 ppm), Mean [1]: 1.459
3-indoxylsulfate (7.71 ppm), Mean [1]: 0.842
4-PY (7.97 ppm), Mean [1]: 1.710
4-PY (8.55 ppm), Mean [1]: 0.484
DMA, Mean [1]: 5.145
DMG, Mean [1]: 1.928
MA, Mean [1]: 2.920
MNA (8.90 ppm), Mean [1]: 0.407
MNA (8.97 ppm), Mean [1]: 0.391
MNA (9.265 ppm), Mean [1]: 0.413
MNA-Nox (7.75 ppm), Mean [1]: 0.969
MNA-Nox (8.13 ppm), Mean [1]: 0.725
MNA-Nox (8.49 ppm), Mean [1]: 0.458
MNA-Nox (8.75 ppm), Mean [1]: 0.434
N-carbamoylalanine (2.38 ppm), Mean [1]: 10.919
N-carbamoylalanine (3.31 ppm), Mean [1]: 9.060
N-isovalerylglycine + oxovalerate (0.92 ppm), Mean [1]: 15.384
TMA, Mean [1]: 10.220
acetate, Mean [1]: 4.384
allantoin, Mean [1]: 21.272
carnitine, Mean [1]: 6.113
choline, Mean [1]: 2.053
cis-aconitate, Mean [1]: 9.014
citrate (2.55 ppm), Mean [1]: 31.737
citrate (2.69 ppm), Mean [1]: 28.801
creatine+creatinine, Mean [1]: 23.782
creatine, Mean [1]: 6.742
creatinine, Mean [1]: 11.494
ethanolamine, Mean [1]: 7.749
formate, Mean [1]: 0.205
fumarate, Mean [1]: 0.167
galactose, Mean [1]: 0.806
glucose, Mean [1]: 3.486
glycine, Mean [1]: 6.185
hexanoylglycine + acids (0.88 ppm), Mean [1]: 15.251
hippurate (7.55 ppm), Mean [1]: 4.857
hippurate (7.64 ppm), Mean [1]: 2.465
hippurate (7.84 ppm), Mean [1]: 5.092
lactate, Mean [1]: 7.122
multiplet acids (1.6 ppm), Mean [1]: 12.357
putrescin, Mean [1]: 8.544
succinate, Mean [1]: 12.532
taurine (3.27 ppm), Mean [1]: 20.714
taurine (3.43 ppm), Mean [1]: 17.197
trigonelline (8.84 ppm), Mean [1]: 0.310
trigonelline (9.13 ppm), Mean [1]: 0.125
vinylacetylglycine, Mean [1]: 3.494
2-OG (2.45 ppm), Saline/analog % [2]: 0.017%
2-OG (3.01 ppm), Saline/analog % [2]: -0.013%
2-PY (8.33 ppm), Saline/analog % [2]: -0.147%
3-indoxylsulfate (7.51 ppm), Saline/analog % [2]: 0.120%
3-indoxylsulfate (7.71 ppm), Saline/analog % [2]: 0.094%
4-PY (7.97 ppm), Saline/analog % [2]: -0.055%
4-PY (8.55 ppm), Saline/analog % [2]: -0.165%
DMA, Saline/analog % [2]: 0.025%
N-carbamoylalanine (2.38 ppm), Saline/analog % [2]: 0.014%
N-carbamoylalanine (3.31 ppm), Saline/analog % [2]: -0.045%
N-isovalerylglycine + oxovalerate (0.92 ppm), Saline/analog % [2]: 0.062%
TMA, Saline/analog % [2]: -0.159%
acetate, Saline/analog % [2]: 0.167%
allantoin, Saline/analog % [2]: 0.054%
carnitine, Saline/analog % [2]: 0.027%
choline, Saline/analog % [2]: 0.042%
cis-aconitate, Saline/analog % [2]: 0.015%
citrate (2.55 ppm), Saline/analog % [2]: -0.026%
citrate (2.69 ppm), Saline/analog % [2]: -0.034%
creatine+creatinine, Saline/analog % [2]: 0.043%
